Assay results from US20150005288A1, “SUBSTITUTED PHENYLIMIDAZOPYRAZOLES AND USE THEREOF” (Bayer Intellectual Property GmbH, priority 2012, published 2015).

Tests used:
[1] = target: T1, endogenous Tie2 receptor (Homo sapiens, UniProt Q02763); test: Tie2-pTyr-ELISA: autophosphorylation of endogenous Tie2 receptor in HUVEC; type: cell-based; conditions: autophosphorylation elevated by sodium orthovanadate (4 mM), Tie2/phosphotyrosine sandwich ELISA, from 2-7 independent measurements
T1 construct: the endogenous Tie2 receptor; host or cells: HUVEC (human umbilical vein endothelial cells)
T1 sequence (Q02763 23-1124): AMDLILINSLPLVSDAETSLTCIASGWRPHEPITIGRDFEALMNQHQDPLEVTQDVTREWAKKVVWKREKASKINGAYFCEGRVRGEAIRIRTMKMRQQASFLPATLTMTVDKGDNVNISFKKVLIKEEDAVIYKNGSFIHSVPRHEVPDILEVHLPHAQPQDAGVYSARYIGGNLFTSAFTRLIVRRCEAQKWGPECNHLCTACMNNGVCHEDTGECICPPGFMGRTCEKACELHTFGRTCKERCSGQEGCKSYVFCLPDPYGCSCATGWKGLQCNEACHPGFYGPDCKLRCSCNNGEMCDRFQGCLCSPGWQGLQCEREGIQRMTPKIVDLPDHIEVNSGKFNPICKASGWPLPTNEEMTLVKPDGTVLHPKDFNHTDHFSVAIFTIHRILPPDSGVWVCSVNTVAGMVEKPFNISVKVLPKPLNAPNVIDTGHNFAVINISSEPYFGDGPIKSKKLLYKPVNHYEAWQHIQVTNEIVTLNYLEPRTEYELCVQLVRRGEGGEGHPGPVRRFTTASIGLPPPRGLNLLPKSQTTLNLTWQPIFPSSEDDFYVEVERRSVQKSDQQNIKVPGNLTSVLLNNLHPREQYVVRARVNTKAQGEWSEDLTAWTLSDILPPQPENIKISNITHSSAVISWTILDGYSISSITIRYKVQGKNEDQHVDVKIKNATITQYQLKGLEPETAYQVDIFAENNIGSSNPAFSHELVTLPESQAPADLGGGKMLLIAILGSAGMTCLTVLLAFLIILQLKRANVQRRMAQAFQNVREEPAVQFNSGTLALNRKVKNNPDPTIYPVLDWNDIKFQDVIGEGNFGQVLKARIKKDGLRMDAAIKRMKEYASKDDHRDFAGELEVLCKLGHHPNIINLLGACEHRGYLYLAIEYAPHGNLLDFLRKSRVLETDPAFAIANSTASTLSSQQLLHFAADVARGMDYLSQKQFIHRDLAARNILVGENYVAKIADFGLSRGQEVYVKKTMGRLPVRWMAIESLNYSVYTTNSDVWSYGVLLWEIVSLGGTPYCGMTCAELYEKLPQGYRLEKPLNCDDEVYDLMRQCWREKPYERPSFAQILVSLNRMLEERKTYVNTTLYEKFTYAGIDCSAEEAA
Protocol: The cellular activity of the compounds according to the invention as Tie2 kinase inhibitors was determined in human endothelial cells (HUVEC) by measuring the inhibition of the autophosphorylation, elevated by treatment with sodium orthovanadate, of the endogenous Tie2 receptor by means of a Tie2/phosphotyrosine sandwich ELISA.
Human endothelial cells (human umbilical vein endothelial cells, HUVEC) were obtained from Cellsystems (FC-0003), cultured in Vasculife VEGF complete medium (Cellsystems, LL-1020) with 2% foetal calf serum (FCS) at 37° C./5% CO2 and used for Tie2-ELISA measurements up to passage 8.
HUVEC were plated in a culture volume of 100 μl of Vasculife VEGF complete medium at a cell density of 30 000 cells per well in transparent collagen-coated 96-well cell culture plates (Falcon, #353075) and incubated in an incubation cabinet at 37° C./5% CO2 overnight. The test substances dissolved in DMSO were used to prepare in each case one dilution series in Vasculife VEGF low-serum medium [basal medium with LifeFactors (Cellsystems, LM-0002), without FCS, with 0.1% BSA] without sodium orthovanadate and one dilution series in Vasculife VEGF low-serum-medium with 8 mM sodium orthovanadate in the desired concentrations in the range from 10 pM to 10 μM, the final DMSO concentration being 1%. After removal of the complete medium, 100 μl per well of the dilute substances in low-serum medium without sodium orthovanadate were pipetted onto the cells, and the plates were incubated in an incubation cabinet at 37° C./5% CO2 for 10 min. A further 100 μl of the same substance dilution in low-serum medium with 8 mM sodium orthovanadate were then pipetted into the respective well and the cells were incubated in a volume of now 200 μl in the presence of 4 mM sodium orthovanadate at the desired substance concentration in an incubation cabinet at 37° C./5% CO2 for a further 20 min. The cell supernatant of the plates was then removed and the cells were washed once with 250 μl per well of cold PBS which contained 4 mM sodium orthovanadate. 120 μl of Duschl lysis buffer [50 mM HEPES pH 7.2, 150 mM NaCl, 1 mM MgCl2, 10% glycerol, 1.5% Triton X-100, 4 mM sodium orthovanadate, 250 μl S-PIC phosphatase inhibitor cocktail 2 (Sigma, P5726) and 1 tablet of Complete proteinase inhibitor mixture (Roche, #1836145) per 10 ml] were then added to the cells in each well. The plates were shaken briefly and then incubated on ice for 20 min, and the lysates in the cell culture plates were then frozen at −80° C. for at least 30 min.
For measuring the autophosphorylation of the endogenous Tie2 receptor in the cell lysates prepared, a self-prepared anti-Tie2 antibody directed against the N-terminus of the Tie-2 receptor (1.09 mg/ml) and an HRP-coupled anti-phosphotyrosine antibody (Sigma, A4595, clone pY-20) were used. White 96-well ELISA plates (Lumitrac600, Greiner, #655074) were incubated with 100 μl per well of a 1:1000 dilution of the anti-Tie2 antibody in coating buffer [15 mM Na2CO3, 35 mM NaHCO3, pH 9.6] with shaking at 4° C. overnight. The coated ELISA plates were washed three times with 250 μl PBST buffer [0.1% Tween-20 in PBS], the wells were blocked with 250 μl 3% BSA in PBST buffer with shaking at RT for 1-6 h and washed three more times with 250 μl PBST buffer. From the cell lysate plates thawed in the fridge, in each case 100 μl of lysate were transferred into the coated wells of the ELISA plates, and the plates were incubated with shaking at 4° C. overnight. The plates were washed three times with in each case 250 μl of PBST buffer, and 100 μl of a 1:5000 dilution of the anti-phosphotyrosine HRP antibody in 3% Prionex (Calbiochem, #529600) in PBST were then pipetted into each well and the plates were incubated with shaking and protected from light at 4° C. overnight. […]

[2] = target: T2, intracellular domain of human Tie2 (GST fusion protein) (Homo sapiens, UniProt Q02763); test: Tie2 kinase assay (Tie2-TR-FRET); type: biochemical; conditions: ATP concentration 1 mM, in some cases means of several independent determinations
T2 construct: intracellular domain of human Tie2 (amino acids 776-1124); made in house; host or cells: Baculovirus-infected insect cells (Hi5)
T2 sequence (Q02763 776-1124): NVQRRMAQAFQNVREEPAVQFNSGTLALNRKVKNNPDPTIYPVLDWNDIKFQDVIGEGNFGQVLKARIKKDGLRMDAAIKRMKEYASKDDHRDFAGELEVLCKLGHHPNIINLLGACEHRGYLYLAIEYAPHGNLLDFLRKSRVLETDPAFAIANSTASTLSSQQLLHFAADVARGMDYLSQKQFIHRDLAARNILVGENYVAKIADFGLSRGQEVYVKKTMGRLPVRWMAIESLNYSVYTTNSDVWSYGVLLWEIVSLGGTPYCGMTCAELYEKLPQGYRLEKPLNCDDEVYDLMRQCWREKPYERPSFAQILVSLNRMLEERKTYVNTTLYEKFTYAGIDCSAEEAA
Summary of the method: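 High ATP (1 mM final) with 1 μM biotin-peptide substrate; reaction 60 min at 22 °C after 15 min compound pre-binding to GST-Tie2 (aa 776-1124) in HEPES pH 7 with Mg/Mn. Phosphopeptide detected by TR-FRET emission ratio 665/620 nm. IC50 from 4-parameter fit over 20 μM to 0.073 nM, duplicates.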

Row | Compound | IC50 [1] | IC50 [2]
1 | Cc1ccc(NC(=O)c2cc(N3CCN(C)CC3)cc(S(F)(F)(F)(F)F)c2)cc1-n1ccn2nc(-c3cn[nH]c3)cc12 [Example 2, 3-(4-Methylpiperazin-1-yl)-N-{4-methyl-3-[6-(1H-pyrazol-4-yl)-1H-imidazo[1,2-b]pyrazol-1-yl]-phenyl}-5-(pentafluoro-λ^6-sulphanyl)benzamide] | 7.6 nM | 6 nM
2 | Cc1ccc(NC(=O)c2cc(N3CCOCC3)cc(S(F)(F)(F)(F)F)c2)cc1-n1ccn2nc(-c3cn[nH]c3)cc12 [Example 3, N-{4-Methyl-3-[6-(1H-pyrazol-4-yl)-1H-imidazo[1,2-b]pyrazol-1-yl]phenyl}-3-(morpholin-4-yl)-5-(pentafluoro-λ^6-sulphanyl)benzamide] | 3.4 nM | 1.2 nM
3 | Cc1ccc(NC(=O)c2cc(C(C)(C)O)cc(S(F)(F)(F)(F)F)c2)cc1-n1ccn2nc(-c3cn[nH]c3)cc12 [Example 4, 3-(2-Hydroxypropan-2-yl)-N-{4-methyl-3-[6-(1H-pyrazol-4-yl)-1H-imidazo[1,2-b]pyrazol-1-yl]-phenyl}-5-(pentafluoro-λ^6-sulphanyl)benzamide] | 4.7 nM | 0.6 nM
4 | Cc1ccc(NC(=O)c2cc(-n3ccnc3C)cc(C(F)(F)F)c2)cc1-n1ccn2nc(-c3cn[nH]c3)cc12 [Example 6, 3-(2-Methyl-1H-imidazol-1-yl)-N-{4-methyl-3-[6-(1H-pyrazol-4-yl)-1H-imidazo[1,2-b]pyrazol-1-yl]phenyl}-5-(trifluoromethyl)benzamide] | 17 nM | 5 nM
5 | Cc1ccc(NC(=O)c2cc(C#N)cc(S(F)(F)(F)(F)F)c2)cc1-n1cc(C)n2nc(-c3cn[nH]c3)cc12 [Example 12, 3-Cyano-N-{4-methyl-3-[3-methyl-6-(1H-pyrazol-4-yl)-1H-imidazo[1,2-b]pyrazol-1-yl]phenyl}-5-(pentafluoro-λ^6-sulphanyl)benzamide] | 4.7 nM | 0.7 nM
6 | Cc1ccc(NC(=O)c2cc(-n3ccnc3C)cc(S(F)(F)(F)(F)F)c2)cc1-n1ccn2nc(-c3cccnc3)cc12 [Example 16, 3-(2-Methyl-1H-imidazol-1-yl)-N-{4-methyl-3-[6-(pyridin-3-yl)-1H-imidazo[1,2-b]pyrazol-1-yl]-phenyl}-5-(pentafluoro-λ^6-sulphanyl)benzamide] | 3.2 nM | 0.7 nM
7 | Cc1ccc(NC(=O)c2cc(N3CCN(C)CC3)cc(S(F)(F)(F)(F)F)c2)cc1-n1ccn2nc(-c3cccnc3)cc12 [Example 18, 3-(4-Methylpiperazin-1-yl)-N-{4-methyl-3-[6-(pyridin-3-yl)-1H-imidazo[1,2-b]pyrazol-1-yl]-phenyl}-5-(pentafluoro-λ^6-sulphanyl)benzamide] | 11 nM | 0.7 nM
8 | Cc1ccc(NC(=O)c2cc(S(C)(=O)=O)cc(S(F)(F)(F)(F)F)c2)cc1-n1ccn2nc(-c3cccnc3)cc12 [Example 26, N-{4-Methyl-3-[6-(pyridin-3-yl)-1H-imidazo[1,2-b]pyrazol-1-yl]phenyl}-3-(methylsulphonyl)-5-(pentafluoro-λ^6-sulphanyl)benzamide] | 3 nM | 0.8 nM
9 | Cc1ccc(NC(=O)c2cc(C#N)cc(S(F)(F)(F)(F)F)c2)cc1-n1ccn2nc(-c3cccnc3)cc12 [Example 28, 3-Cyano-N-{4-methyl-3-[6-(pyridin-3-yl)-1H-imidazo[1,2-b]pyrazol-1-yl]phenyl}-5-(pentafluoro-λ^6-sulphanyl)benzamide] | 3.6 nM | 2.1 nM
10 | Cc1ccc(NC(=O)c2cc(C(C)(C)O)cc(S(F)(F)(F)(F)F)c2)cc1-n1ccn2nc(-c3cccnc3)cc12 [Example 32, 3-(2-Hydroxypropan-2-yl)-N-{4-methyl-3 [6-(pyridin-3-yl)-1H-imidazo[1,2-b]pyrazol-1-yl]-phenyl}-5-(pentafluoro-λ^6-sulphanyl)benzamide] | 2.1 nM | 0.4 nM
11 | Cc1ccc(NC(=O)c2cc(-n3ccnc3C)cc(C(F)(F)F)c2)cc1-n1ccn2nc(-c3cccnc3)cc12 [Example 40, 3-(2-Methyl-1H-imidazol-1-yl)-N-{4-methyl-3-[6-(pyridin-3-yl)-1H-imidazo[1,2-b]pyrazol-1-yl]-phenyl}-5-(trifluoromethyl)benzamide] | 2.3 nM | 0.5 nM
12 | Cc1ccc(NC(=O)c2cc(N3CCN(C)CC3)cc(C(C)(C)C)c2)cc1-n1ccn2nc(-c3cccnc3)cc12 [Example 48, 3-tert-Butyl-5-(4-methylpiperazin-1-yl)-N-{4-methyl-3-[6-(pyridin-3-yl)-1H-imidazo[1,2-b]-pyrazol-1-yl]phenyl}benzamide] | 6.4 nM | 0.3 nM
13 | Cc1ccc(NC(=O)c2cc(CN3CCCC3)cc(C(C)(C)C)c2)cc1-n1ccn2nc(-c3cccnc3)cc12 [Example 51, 3-tert-Butyl-N-{4-methyl-3-[6-(pyridin-3-yl)-1H-imidazo[1,2-b]pyrazol-1-yl]phenyl}-5-(pyrrolidin-1-ylmethyl)benzamide] | 8.8 nM | 0.7 nM
14 | CNc1cc(C(=O)Nc2ccc(C)c(-n3ccn4nc(-c5cccnc5)cc34)c2)cc(C(C)(C)C)n1 [Example 66, 2-tert-Butyl-6-(methylamino)-N-{4-methyl-3-[6-(pyridin-3-yl)-1H-imidazo[1,2-b]pyrazol-1-yl]-phenyl}isonicotinamide] | 46 nM | 7.9 nM
15 | Cc1cc(C)c(-n2ccn3nc(-c4cccnc4)cc23)cc1NC(=O)c1cccc(S(F)(F)(F)(F)F)c1 [Example 73, N-{2,4-Dimethyl-5-[6-(pyridin-3-yl)-1H-imidazo[1,2-b]pyrazol-1-yl]phenyl}-3-(pentafluoro-λ^6-sulphanyl)benzamide] | 0.8 nM | 0.3 nM
16 | Cc1cc(C)c(-n2ccn3nc(-c4cccnc4)cc23)cc1NC(=O)c1cc(C#N)cc(S(F)(F)(F)(F)F)c1 [Example 74, 3-Cyano-N-{2,4-dimethyl-5-[6-(pyridin-3-yl)-1H-imidazo[1,2-b]pyrazol-1-yl]phenyl}-5-(pentafluoro-λ^6-sulphanyl)benzamide] | 0.6 nM | 0.5 nM
17 | Cc1cc(F)c(NC(=O)c2cc(C#N)cc(S(F)(F)(F)(F)F)c2)cc1-n1ccn2nc(-c3cccnc3)cc12 [Example 75, 3-Cyano-N-{2-fluoro-4-methyl-5-[6-(pyridin-3-yl)-1H-imidazo[1,2-b]pyrazol-1-yl]phenyl}-5-(pentafluoro-λ^6-sulphanyl)benzamide] | 1.7 nM | 0.5 nM
18 | Cc1ccc(-n2ccn3nc(-c4cccnc4)cc23)cc1NC(=O)c1cc(C#N)cc(S(F)(F)(F)(F)F)c1 [Example 77] | 8.8 nM | 13 nM
19 | Cc1ccc(NC(=O)c2cc(F)cc(S(F)(F)(F)(F)F)c2)cc1-n1ccn2nc(-c3cccnc3)cc12 [Example 88, 3-Fluoro-N-{4-methyl-3-[6-(pyridin-3-yl)-1H-imidazo[1,2-b]pyrazol-1-yl]phenyl}-5-(pentafluoro-λ^6-sulphanyl)benzamide] | 41 nM | 23 nM
